Literature values as cited in patent US20100015174A1, “METHOD TO CONTROL DENGUE VIRUSES IN HUMANS BY PICOLINIC ACID AND DERIVATIVES THEREOF” (priority 2008, published 2010).

What was measured:
[1] = system: human aortic endothelial cells; settings: cited from earlier work
J2 retrovirus = settings: GG2EE transformed macrophages; cited from earlier work

## O=C(O)c1cccnc1 [Niacin, Nicotinic acid]
[1]
  change of reactive oxygen species (ROS): > 50%
  change of vascular adhesion molecules (VCAM-I): 80%
  increase of NAD(P)H levels: 54%

## IFN-gamma: type II (immune) interferon
J2 retrovirus
  J2 retrovirus expression: not affected
